Numbers after ± are expanded uncertainties.
Key:
[1] = for surface tension liquid-gas: Ring tensiometer; for mass density: 101.3 kPa, Liquid
[2] = xn = mol fraction of the nth substance listed; conditions: x2 = 0; for surface tension liquid-gas: Ring tensiometer; for mass density: 101.3 kPa, Liquid

surface tension liquid-gas ([1]; 298.15 K) [mN/m] | mass density ([1]; 298.15 K) [kg/m3] | surface tension liquid-gas ([1]; 308.15 K) [mN/m] | mass density ([1]; 308.15 K) [kg/m3] | surface tension liquid-gas ([1]; 318.15 K) [mN/m] | mass density ([1]; 318.15 K) [kg/m3] | surface tension liquid-gas ([2]; 298.15 K) [mN/m] | surface tension liquid-gas ([2]; 308.15 K) [mN/m] | mass density ([2]; 308.15 K) [kg/m3] | surface tension liquid-gas ([2]; 318.15 K) [mN/m] | Compound
– | – | – | – | – | – | 71.37 ± 1 | 70.08 ± 1 | 994.06 ± 0.27 | 69.11 ± 1 | O [water] + COCCOCCOCCOC
– | – | – | – | – | – | 71.37 ± 1 | 70.08 ± 1 | 994.06 ± 0.27 | 69.11 ± 1 | O [water] + COCCOCCOCCOCCOC

The next lines start with the compound.

Compound | surface tension liquid-gas ([1]; 298.15 K) [mN/m] | mass density ([1]; 298.15 K) [kg/m3] | surface tension liquid-gas ([1]; 308.15 K) [mN/m] | mass density ([1]; 308.15 K) [kg/m3] | surface tension liquid-gas ([1]; 318.15 K) [mN/m] | mass density ([1]; 318.15 K) [kg/m3] | surface tension liquid-gas ([2]; 298.15 K) [mN/m] | surface tension liquid-gas ([2]; 308.15 K) [mN/m] | mass density ([2]; 308.15 K) [kg/m3] | surface tension liquid-gas ([2]; 318.15 K) [mN/m]
COCCOCCOC [2,5,8-trioxanonane] | 24.56 ± 0.41 | 940.01 ± 0.83 | 27.65 ± 0.45 | 930.03 ± 0.86 | 23.44 ± 0.4 | 919.99 ± 0.88 | – | – | – | –
COCCOCCOCCOCCOC [2,5,8,11,14-pentaoxapentadecane] | 33.74 ± 0.69 | 1007.26 ± 2.1 | 32.45 ± 0.67 | 997.98 ± 2.1 | 31.71 ± 0.65 | 988.72 ± 2.1 | – | – | – | –
COCCOCCOCCOC [2,5,8,11-tetraoxadodecane] | 27.56 ± 0.48 | 981.23 ± 1.1 | 28.48 ± 0.5 | 971.71 ± 1.1 | 27.83 ± 0.49 | 962.19 ± 1.1 | – | – | – | –
O [water] + COCCOCCOC | – | – | – | – | – | – | 71.37 ± 1 | 70.08 ± 1 | 994.06 ± 0.27 | 69.11 ± 1

Reference: the NIST ThermoML archive (doi:10.1021/je100757w)
